These results are taken from patent US8178540B2 (priority 2006, dated 2012).

Data set [1] concerns tobacco budworm (Heliothis virescens). Conditions: 2500 ppm; eggs sprayed, 6 days.
Another data set deals with Sphaerotheca fuliginea. As to the kind of experiment: Use Example 8: protective action on cucumber leaves. The conditions noted are these: 250 ppm (printed for RC 3 only); cucumber seedlings sprayed 1 day before inoculation; after seven days; untreated plants 90% infected. It is filed as in vivo. An excerpt: After inoculation, the trial plants were transferred to a green house.

The subject of a further data set is Alternaria solani. Description: Use Example 2: early blight of tomato, greenhouse, spores in 2% biomalt. It is filed as in vivo. Conditions: 250 ppm; tomato plants sprayed 1 day before inoculation; assessed after 5 days; untreated plants 90% infected. The method, then:
The next day, the treated plants were inoculated with a spore suspension of Alternaria solani which contained 0.17×10^6 spores/ml in a 2% aqueous biomalt solution. The test plants were then placed in a water vapor-saturated chamber at temperatures of from 20 to 22° C. After 5 days the disease on the untreated infected control plants had developed to such an extent that the infection of all plants could be determined visually in %.

Another data set deals with Phytophthora infestans. It is filed as in vivo. Conditions: 250 ppm; tomato plants, sprayed 1 day before inoculation; after six days; untreated plants 90% infected.

Consider `O=S(=O)(NCc1ccncn1)c1ccc(-c2ccc(Cl)cc2Cl)cc1` [Example 54], for which the mortality entry in data set [1] was “at least 75%”. On to `COc1nccc(CNS(=O)(=O)c2ccc(-c3ccc(Cl)cc3)cc2)n1` [Example 88], for which, in the data set on Sphaerotheca fuliginea, the “infection (% diseased leaf area)” value is listed as “no infection”.

`O=S(=O)(NCc1ccncn1)c1ccc(Oc2ccc(Cl)cc2)cc1` [Example 199]: in the data set with Alternaria solani, the infection result is “less than or equal to 5%”. Still for that read-out and setting: next, `O=S(=O)(NCc1ccncc1)c1ccc(Oc2ccc(Cl)cc2)cc1` [RC 1]: 40%.

As to `O=S(=O)(NCc1ccncc1)c1ccc(-c2ccc(Cl)cc2)cc1` [RC 2], the “infection (% diseased leaf area)” value with Phytophthora infestans came out at 90%. On to `COc1cc(CNS(=O)(=O)c2ccc(-c3ccc(Cl)cc3)cc2)ccn1` [RC 3], for which, in the data set with Sphaerotheca fuliginea, the “infection (% diseased leaf area)” value was determined as 90%.
